Laboratory results taken from patent US10865208B2, “ATG7 inhibitors and the uses thereof” (Millennium Pharmaceuticals, Inc., priority 2016, dated 2020).

Target: recombinant human His-ATG7 enzyme (Homo sapiens (Human), UniProt O95352)
Experiment: ATG7 Enzyme Assay (HTRF/FRET, ATG3-GST and Flag-Gabarap)
Format: biochemical
Settings: for inhibition at 0.111 µM: Concentration 0.111 μM, read-out: Percent Inhibition
In short: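 HTRF read-out after 2 h at 24° C, using Eu-cryptate anti-Flag and XL-APC anti-GST antibodies in an EDTA stop buffer. The preceding 105 min, 24° C reaction (pH 7.5) held 10 μM ATP, 5 nM each ATG3-GST and Flag-Gabarap, and 0.15 nM human His-ATG7. Values are IC50 or percent inhibition at one concentration.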

recombinant human His-ATG7 enzyme, sequence (O95352 whole entry): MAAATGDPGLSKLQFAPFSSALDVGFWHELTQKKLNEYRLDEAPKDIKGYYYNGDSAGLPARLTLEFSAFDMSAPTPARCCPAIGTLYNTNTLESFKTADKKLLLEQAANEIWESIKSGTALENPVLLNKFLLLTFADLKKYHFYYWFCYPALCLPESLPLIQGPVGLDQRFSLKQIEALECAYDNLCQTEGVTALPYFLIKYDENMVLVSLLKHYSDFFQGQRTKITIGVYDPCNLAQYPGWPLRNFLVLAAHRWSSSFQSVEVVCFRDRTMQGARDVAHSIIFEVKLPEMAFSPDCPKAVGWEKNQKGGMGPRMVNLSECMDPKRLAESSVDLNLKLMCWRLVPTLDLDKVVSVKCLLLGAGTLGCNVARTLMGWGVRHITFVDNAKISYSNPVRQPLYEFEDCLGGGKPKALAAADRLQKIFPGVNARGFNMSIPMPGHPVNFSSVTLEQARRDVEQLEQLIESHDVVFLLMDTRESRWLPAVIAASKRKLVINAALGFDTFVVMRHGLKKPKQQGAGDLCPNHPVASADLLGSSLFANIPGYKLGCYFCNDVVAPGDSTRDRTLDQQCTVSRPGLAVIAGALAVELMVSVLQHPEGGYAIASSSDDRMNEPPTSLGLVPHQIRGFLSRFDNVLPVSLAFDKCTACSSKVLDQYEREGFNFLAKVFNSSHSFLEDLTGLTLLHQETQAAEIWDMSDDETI

CC(C)Sc1nn([C@H]2C[C@H](O)[C@H](COS(N)(=O)=O)O2)c2ncnc(N)c12 [Compound I-220, {(2S,3S,5R)-5-[4-amino-3-(isopropylsulfanyl)-1H-pyrazolo[3,4-d]pyrimidin-1-yl]-3-hydroxytetrahydrofuran-2-yl}methyl sulfamate]
IC50: 0.05 to 0.1 µM
inhibition at 0.111 µM: 65%

Nc1ncnc2c1c(SCc1ccccc1)nn2[C@H]1C[C@H](O)[C@H](COS(N)(=O)=O)O1 [Compound I-221, {(2S,3S,5R)-5-[4-amino-3-(benzylsulfanyl)-1H-pyrazolo[3,4-d]pyrimidin-1-yl]-3-hydroxytetrahydrofuran-2-yl}methyl Sulfamate]
IC50: 0.1 to 0.5 µM
inhibition at 0.111 µM: 26%

Nc1ncnc2c1c(Sc1ccc(Cl)cn1)nn2[C@H]1C[C@H](O)[C@H](COS(N)(=O)=O)O1 [Compound I-222, [(2S,3S,5R)-5-{4-amino-3-[(5-chloropyridin-2-yl)sulfanyl]-1H-pyrazolo[3,4-d]pyrimidin-1-yl}-3-hydroxytetrahydrofuran-2-yl]methyl sulfamate]
IC50: 0.05 to 0.1 µM
inhibition at 0.111 µM: 59%

Nc1ncnc2c1c(Sc1ccc(F)cc1)nn2[C@H]1C[C@H](O)[C@H](COS(N)(=O)=O)O1 [Compound I-223, [(2S,3S,5R)-5-{4-amino-3-[(4-fluorophenyl)sulfanyl]-1H-pyrazolo[3,4-d]pyrimidin-1-yl}-3-hydroxytetrahydrofuran-2-yl]methyl sulfamate]
IC50: 0.1 to 0.5 µM
inhibition at 0.111 µM: 35%

Nc1ncnc2c1c(Sc1cccc(Cl)c1)nn2[C@H]1C[C@H](O)[C@H](COS(N)(=O)=O)O1 [Compound I-224, [(2S,3S,5R)-5-{4-amino-3-[(3-chlorophenyl)sulfanyl]-1H-pyrazolo[3,4-d]pyrimidin-1-yl}-3-hydroxytetrahydrofuran-2-yl]methyl sulfamate]
IC50: 0.1 to 0.5 µM
inhibition at 0.111 µM: 39%

COc1nn([C@H]2C[C@H](O)[C@H](COS(N)(=O)=O)O2)c2ncnc(N)c12 [Compound I-225, [(2S,3S,5R)-5-(4-amino-3-methoxy-1H-pyrazolo[3,4-d]pyrimidin-1-yl)-3-hydroxytetrahydrofuran-2-yl]methyl sulfamate]
IC50: > 0.5 µM
inhibition at 0.111 µM: 10%

Nc1ncnc2c1c(SCC(F)F)nn2[C@H]1C[C@H](O)[C@H](COS(N)(=O)=O)O1 [Compound I-227, [(2S,3S,5R)-5-{4-amino-3-[(2,2-difluoroethyl)sulfanyl]-1H-pyrazolo[3,4-d]pyrimidin-1-yl}-3-hydroxytetrahydrofuran-2-yl]methyl Sulfamate]
IC50: 0.1 to 0.5 µM
inhibition at 0.111 µM: 48%
